Measured values: US20230407243A1, “GENETIC PLATFORM TO INVESTIGATE THE FUNCTIONS OF BACTERIAL DRUG EFFLUX PUMPS” (priority 2022, published 2023)

Experiments:
Assay type in all cases: cell-based, Escherichia coli
[1] = test system: EKO-35 araC::acrBD408A; assay: MIC susceptibility profiling, efflux platform; settings: for Fold change of MICs: EKO-35 araC::acrBD408A compared to EKO-35; for MIC: Escherichia coli, read-out: Minimum Inhibitory Concentration, EKO-35 araC::acrBD408A
Procedure, shortened: (§1)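 Broth MIC in cation-adjusted Mueller-Hinton (MHB II) following twofold compound titration in duplicate. Bacteria were prepared at OD600 ~1.0 in PBS and diluted 1/2000. Endpoint OD600 after 18 h at 37 °C was corrected using the pre-incubation reading.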

[2] = test system: EKO-35 araC::acrD; assay: MIC susceptibility profiling, efflux platform; settings: for Fold change of MICs: EKO-35 araC::acrD compared to EKO-35; for MIC: Escherichia coli, read-out: Minimum Inhibitory Concentration, EKO-35 araC::acrD
Procedure, shortened: as §1

[3] = test system: EKO-35 araC::acrEF; assay: MIC susceptibility profiling, efflux platform; settings: for Fold change of MICs: EKO-35 araC::acrEF compared to EKO-35; for MIC: Escherichia coli, read-out: Minimum Inhibitory Concentration, EKO-35 araC::acrEF
Procedure, shortened: as §1

[4] = test system: EKO-35 araC::emrAB; assay: MIC susceptibility profiling, efflux platform; settings: for Fold change of MICs: EKO-35 araC::emrAB compared to EKO-35; for MIC: Escherichia coli, read-out: Minimum Inhibitory Concentration, EKO-35 araC::emrAB
Procedure, shortened: as §1

[5] = test system: EKO-35 araC::emrKY; assay: MIC susceptibility profiling, efflux platform; settings: for Fold change of MICs: EKO-35 araC::emrKY compared to EKO-35
Procedure, shortened: as §1

[6] = test system: EKO-35 araC::macAB; assay: MIC susceptibility profiling, efflux platform; settings: for Fold change of MICs: EKO-35 araC::macAB compared to EKO-35
Procedure, shortened: as §1

[7] = test system: EKO-35 araC::mdtBC; assay: MIC susceptibility profiling, efflux platform; settings: for Fold change of MICs: EKO-35 araC::mdtBC compared to EKO-35; for MIC: Escherichia coli, read-out: Minimum Inhibitory Concentration, EKO-35 araC::mdtBC
Procedure, shortened: as §1

[8] = test system: EKO-35 araC::mexCD (MexCD from P. aeruginosa); assay: MIC susceptibility profiling, efflux platform; settings: for Fold change of MICs: EKO-35 araC::mexCD compared to EKO-35; for MIC: read-out: Minimum Inhibitory Concentration, EKO-35 araC::mexCD
Procedure, shortened: as §1

[9] = test system: EKO-35 araC::acrB Pore; assay: MIC susceptibility profiling, porinated efflux platform; settings: for Fold changes of MICs: EKO-35 araC::acr-B Pore compared to EKO-35-Pore; for MIC: Escherichia coli, read-out: Minimum inhibitory concentration, EKO-35 araC::acrB Pore
Procedure, shortened: (§2)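 Strains carry the fhuA ΔC/Δ4L pore integrated between glmS and pstS under a constitutive promoter, with pore activity checked by vancomycin susceptibility. Overnight LB cultures were adjusted in PBS pH 7.4 to OD600 ~1.0 and diluted 1/2000 into MHB II. 2-fold compound titrations were read by OD600 after 18 h at 37 °C.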

[10] = test system: EKO-35 araC::acrBD408A Pore; assay: as above; settings: for Fold changes of MICs: EKO-35 araC::acrBD408A Pore compared to EKO-35-Pore; for MIC: Escherichia coli, read-out: Minimum inhibitory concentration
Procedure, shortened: as §2

[11] = test system: EKO-35 araC::acrD Pore; assay: as above; settings: for Fold changes of MICs: EKO-35 araC::acrD Pore compared to EKO-35-Pore
Procedure, shortened: as §2

[12] = test system: EKO-35 araC::acrEF Pore; assay: as above; settings: for Fold changes of MICs: EKO-35 araC::acrEF Pore compared to EKO-35-Pore
Procedure, shortened: as §2

[13] = test system: EKO-35 araC::emrAB Pore; assay: as above; settings: for Fold changes of MICs: EKO-35 araC::emrAB Pore compared to EKO-35-Pore; for MIC: Escherichia coli, read-out: Minimum inhibitory concentration
Procedure, shortened: as §2

[14] = test system: EKO-35 araC::emrKY Pore; assay: as above; settings: for Fold changes of MICs: EKO-35 araC::emrKY Pore compared to EKO-35-Pore
Procedure, shortened: as §2

[15] = test system: EKO-35 araC::macAB Pore; assay: as above; settings: for Fold changes of MICs: EKO-35 araC::macAB Pore compared to EKO-35-Pore; for MIC: Escherichia coli, read-out: Minimum inhibitory concentration
Procedure, shortened: as §2

[16] = test system: EKO-35 araC::mdtBC Pore; assay: as above; settings: for Fold changes of MICs: EKO-35 araC::mdtBC Pore compared to EKO-35-Pore
Procedure, shortened: as §2

[17] = test system: EKO-35 araC::mdtEF Pore; assay: as above; settings: for Fold changes of MICs: EKO-35 araC::mdtEF Pore compared to EKO-35-Pore; for MIC: Escherichia coli, read-out: Minimum inhibitory concentration, EKO-35 araC::mdtEF Pore
Procedure, shortened: as §2

[18] = test system: EKO-35 araC::mexCD Pore; assay: as above; settings: for Fold changes of MICs: EKO-35 araC::mexCD Pore compared to EKO-35-Pore
Procedure, shortened: as §2

[19] = Table 13B, non-porinated, technical duplicate
[20] = Table 13A, non-porinated, technical duplicate
[21] = Table 14A, porinated, technical duplicate
[22] = EKO-35 araC::acrBD408A Pore, technical duplicate
[23] = EKO-35 araC::emrAB Pore, technical duplicate
[24] = EKO-35 araC::macAB Pore, technical duplicate

Structure (SMILES) | Fold change of MICs [1] [fold] | Fold change of MICs [2] [fold] | Fold change of MICs [3] [fold] | Fold change of MICs [4] [fold] | Fold change of MICs [5] [fold] | Fold change of MICs [6] [fold] | Fold change of MICs [7] [fold] | Fold change of MICs [8] [fold] | Fold changes of MICs [9] [fold] | Fold changes of MICs [10] [fold] | Fold changes of MICs [11] [fold] | Fold changes of MICs [13] [fold] | Fold changes of MICs [14] [fold] | Fold changes of MICs [15] [fold] | Fold changes of MICs [16] [fold] | Fold changes of MICs [18] [fold] | MIC [1, 19] [µg/mL] | MIC [2, 20] [µg/mL] | MIC [3, 20] [µg/mL] | MIC [4, 19] [µg/mL] | further results
CC(C)(C)c1cc(C(=O)NNC(=O)Nc2cccc3ccccc23)n(Cc2ccc(F)cc2)n1 [compound 4] | 1 | 16 | 16 | 16 | 1 | 1 | 1 | 16 | 128 | 1 | 4 | 8 | 1 | 2 | 1 | 16 |  |  |  |  | Minimum Inhibitory Concentration, EKO-35 araC::acrBD408A [1, 19]: 20 µg/mL; Minimum Inhibitory Concentration, EKO-35 araC::acrD [2, 20]: 320 µg/mL; Minimum Inhibitory Concentration, EKO-35 araC::acrEF [3, 20]: 320 µg/mL; Minimum Inhibitory Concentration, EKO-35 araC::emrAB [4, 19]: 320 µg/mL; Minimum Inhibitory Concentration, EKO-35 araC::emrKY [5, 19]: 20 µg/mL; Minimum Inhibitory Concentration, EKO-35 araC::macAB [6, 19]: 20 µg/mL; Minimum Inhibitory Concentration, EKO-35 araC::mdtBC [7, 19]: 20 µg/mL; Minimum Inhibitory Concentration, EKO-35 araC::mexCD [8, 19]: 320 µg/mL; Minimum inhibitory concentration, EKO-35 araC::acrB Pore [9, 21]: 320 µg/mL; Minimum inhibitory concentration [10, 22]: 2.5 µg/mL; Minimum inhibitory concentration, EKO-35 araC::acrD Pore [11, 21]: 10 µg/mL; Minimum inhibitory concentration, EKO-35 araC::acrEF Pore [12, 21]: 320 µg/mL; Minimum inhibitory concentration [13, 23]: 20 µg/mL; Minimum inhibitory concentration ([14]; EKO-35 araC::emrKY Pore, technical duplicate): 1.25 µg/mL; Minimum inhibitory concentration [15, 24]: 5 µg/mL; Minimum inhibitory concentration ([16]; EKO-35 araC::mdtBC Pore, technical duplicate): 2.5 µg/mL; Minimum inhibitory concentration, EKO-35 araC::mdtEF Pore [17, 21]: 320 µg/mL; Minimum inhibitory concentration ([18]; EKO-35 araC::mexCD Pore, technical duplicate): 40 µg/mL
CC[C@H]1OC(=O)[C@H](C)[C@@H](O[C@H]2C[C@@](C)(OC)[C@@H](O)[C@H](C)O2)[C@H](C)[C@@H](O[C@@H]2O[C@H](C)C[C@H](N(C)C)[C@H]2O)[C@](C)(O)C[C@@H](C)CN(C)[C@H](C)[C@@H](O)[C@]1(C)O [azithromycin] | 1 | 1 | 8 | 1 | 1 | 4 | 1 | 4 | 4 | 2 | 1 | 1 | 1 | 2 | 1 | 2 | 0.781 | 0.781 | 6.25 | 0.781 | MIC ([6]; Escherichia coli, Table 13B, non-porinated, technical duplicate, read-out: Minimum Inhibitory Concentration, EKO-35 araC::macAB): 3.12 µg/mL; efflux pump-mediated resistance vs EKO-35 ([6]; MacAB): specific; MIC [7, 19]: 0.781 µg/mL; MIC [8, 19]: 3.12 µg/mL; MIC [9, 21]: 0.195 µg/mL; MIC [10, 22]: 0.098 µg/mL; MIC ([11]; Escherichia coli, Table 14A, porinated, technical duplicate, read-out: Minimum inhibitory concentration, EKO-35 araC::acrD Pore): 0.024 µg/mL; Fold changes of MICs [12]: 4 fold; MIC ([12]; Escherichia coli, Table 14A, porinated, technical duplicate, read-out: Minimum inhibitory concentration, EKO-35 araC::acrEF Pore): 0.195 µg/mL; MIC [13, 23]: 0.049 µg/mL; MIC ([14]; Escherichia coli, EKO-35 araC::emrKY Pore, technical duplicate, read-out: Minimum inhibitory concentration): 0.024 µg/mL; MIC [15, 24]: 0.098 µg/mL; fold increase of MIC over EKO-35 ([15]; MacAB with a porinated OM): 2 fold; MIC ([16]; Escherichia coli, EKO-35 araC::mdtBC Pore, technical duplicate, read-out: Minimum inhibitory concentration): 0.049 µg/mL; Fold changes of MICs [17]: 4 fold; MIC [17, 21]: 0.195 µg/mL; MIC ([18]; Escherichia coli, EKO-35 araC::mexCD Pore, technical duplicate, read-out: Minimum inhibitory concentration): 0.098 µg/mL; efflux pump-mediated resistance vs EKO-35-Pore ([18]; MexCD, OM compromised): no longer associated MexCD with resistance
Nc1ccc(S(=O)(=O)Nc2nccs2)cc1 [Sulfathiazole] | 1 | 1 | 1 | 1 | 1 | 1 | 1 | 1 | 2 | 0 | 1 | 2 | 1 | 2 | 1 | 1 | 10 | 10 | 10 | 10 | MIC ([5]; Escherichia coli, Table 13B, non-porinated, technical duplicate, read-out: Minimum Inhibitory Concentration, EKO-35 araC::emrKY): 10 µg/mL; MIC [7, 19]: 10 µg/mL; MIC [8, 19]: 10 µg/mL; MIC [9, 21]: 10 µg/mL; MIC [10, 22]: 1.25 µg/mL; Fold changes of MICs [12]: 1 fold; MIC [13, 23]: 10 µg/mL; MIC [15, 24]: 10 µg/mL; Fold changes of MICs [17]: 2 fold; MIC [17, 21]: 10 µg/mL
